{"source": "patent US7416868B2", "about": "“Polyene polyketides, processes for their production and their use as a pharmaceutical” (Thallion Pharmaceuticals, Inc., priority 2003, dated 2008)", "key": {"[1]": {"tested_on": "A. fumigatus - LSPQ 204305", "experiment": "Disk diffusion assay, minimum effective concentration (MEC) and zone of inhibition (ZOI)", "assay_type": "cell-based, Aspergillus fumigatus"}, "[2]": {"tested_on": "60 different human tumor cell lines", "experiment": "NCI in vitro antiproliferative screen (SRB), GI50", "assay_type": "cell-based", "experimental": "In vitro antipoliferative study of Compound 2a was performed by the National Cancer Institute (National Institutes of Health, Bethesda, Md., USA) against a panel of cancer cell lines in order to determine the concentrations needed to obtain a 50% inhibition of cell proliferation (IC50). The operation of this unique screen utilizes 60 different human tumor cell lines, representing leukemia, melanoma, and cancers of the lung, colon, brain, ovary, breast prostate and kidney. Compound 2(a) was provided as a lyophilized powder with an estimated purity of 90+%. The compound was stored at −20° C. until day of use.\nThe human tumor cell lines of the cancer-screening panel were grown in RPMI 1640 medium containing 5% fetal bovine serum and 2 mM L-glutamine. For a typical screening experiment, cells were inoculated into 96 well microtiter plates in 100 μl at plating densities ranging from 5000 to 40,000 cells/well depending on the doubling time of individual cell lines (Table 8). […]\nFollowing drug addition, the plates were incubated for an additional 48 hours at 37° C., 5% CO2, 95% air, and 100% relative humidity. […] Bound stain was subsequently solubilized with 10 mM trizma base, and the absorbance was read on an automated plate reader at a wavelength of 515 nm. […]\nThe growth inhibitory power of compound 2(a) was measured by NCl utilizing the GI50 value, rather than the classical IC50 value. […]"}, "Candida species": {"tested_on": "Candida species", "experiment": "Broth microdilution MIC determination (NCCLS M27-A adapted), yeasts", "procedure": "(§1) Test compound preparation: The test article was prepared as 100× stock solutions in DMSO, with concentrations ranging from 3.2 mg/ml to 0.0625 mg/ml (a two-fold dilution series over 10 points). The first dilution (3.2 mg/ml) was prepared by resuspending 0.5 mg of each test article in 156.25 μl of DMSO.\n(§2) Inoculum preparation: For fungal strains, the inoculum was prepared as follows. From an overnight culture in Yeast Media broth, cell density was adjusted in 0.85% saline to 0.5 McFarland. This procedure yielded a stock suspension of about 5×10^6 cells/ml. Following thorough vortexing, a working suspension was prepared by diluting the stock 1:50 in RPMI 1640, and then further diluting it 1:20 with RPMI 1640 to obtain the 2× test inoculum (about 5×10^3 cells/ml). For filamentous fungi, the inoculum was prepared as follows. From a spore suspension kept at 4° C., an appropriate dilution in 0.85% saline was made to obtain a final optical density 600 between 0.09-0.11. A working suspension was then prepared by diluting the spore suspension 50 times in RPMI to obtain the 2× test inoculum (about 1×10^5 CFU/ml).\n(§3) MIC Determination: The 100× test article solutions were diluted 50 times in RPMI 1640, MH or BHI media and dispensed in a 96 well plate, one concentration per column, 10 columns in total. The 11th column contained RPMI 1640 with 1% DMSO with cells, the 12th column contained 100 μl of RPMI 1640 alone.\n(§4) 50 μl of the final cell dilution (yeast, filamentous fungi or bacteria) of each indicator strain was added to each corresponding well of the microplate containing 50 μl of diluted drug or media alone. Assay plates were incubated at 35° C. for up to 72 hrs. MIC readings were determined at 24 and 48 hrs for the Candida and Aspergillus species, and at 48 and 72 hrs for Cryptococcus neoformans. MIC readout for each indicator was determined as the lowest concentration of test compound resulting in total absence of growth."}, "Aspergillus species": {"tested_on": "Aspergillus species", "experiment": "Broth microdilution MIC determination, filamentous fungi", "procedure": "as §1, §2, §3, §4"}, "A. flavus - ATCC 204304": {"tested_on": "A. flavus - ATCC 204304", "experiment": "Disk diffusion assay, minimum effective concentration (MEC) and zone of inhibition (ZOI)", "assay_type": "cell-based, Aspergillus flavus"}, "C. albicans SC5314": {"tested_on": "C. albicans SC5314", "experiment": "Mouse model of disseminated candidiasis, survival", "assay_type": "in vivo", "details": "CD-1 mice infected i.v. with C. albicans SC5314; 1 or 3 mg/kg i.p. once daily for 4 days", "experimental": "Compound 2(a) was provided as a dry powder with an estimated purity of 95+%. Fungizone (amphotericin B desoxycholate, to be used as a comparitor), was also provided as a dry powder with an estimated purity of 95+%. The compound 2(a) and Fungizone were stored as dry powders at −80° C. until the day of administration.\nFemale mice (species Mus musculus, strain CD-1, Charles River) with body weight range of 22-24 g were used in the study. […] All animal experiments were performed at the Step-Justine Hospital (Montreal, Quebec) according to ethical guidelines of animal experimentation of the ethical committee of the hospital. During the study, dead or apparently sick animals were promptly removed and sick mice were euthanized upon removal from the cage.\nThe animals were maintained in rooms under controlled conditions of temperature (23±2° C.), humidity (45±5%), photoperiodicity (12 hrs light/12 hrs dark) and air exchange. The animals were housed in polycarbonate cages (4/single cage) equipped to provide food and water. Sterile wood shavings were used for animal bedding and the bedding was replaced every other day. […]\nThe treatment regimen was repeated once daily for a total of 4 days. […] Moribund animals were scored as non-survivors and euthanized by CO2 inhalation. […]"}}}
{"smiles": "CC(C=CCCC=CC=CC=CC=CC(=O)NC1=C(O)CCC1=O)C(O)C(C)C(O)C=CC=CC=CC=CC=CCC(OC1OC(C)C(O)C(O)C1O)C(C)C(=O)CC(O)CC(O)CC(O)C=CCC(O)CC(O)CC(O)CC(O)C=CCC(O)CC(O)CCCN", "note": "(stereo not shown) [Compound 2(a), 56-Amino-15,17,33,35,37,41,43,45,47,51,53-undecahydroxy-14,16,30-trimethyl-31-oxo-29-(3,4,5-trihydroxy-6-methyl-tetrahydro-pyran-2-yloxy)-hexapentaconta-2,4,6,8,12,18,20,22,24,26,38,48-dodecaenoic acid (2-hydroxy-5-oxo-cyclopent-1-enyl)-amide]", "values": [{"measurement": "ZOI (zone of inhibition of fungal growth at the MEC)", "setting": "[1]; Aspergillus fumigatus, at MEC, 24 hours of incubation", "result": 2.7, "unit": "mm"}, {"measurement": "antifungal activity against Aspergillus fumigatus", "setting": "[1]; ZOI after 24 hours at 35° C.", "result": "active"}, {"measurement": "GI50 level", "setting": "[2]; SN12C/renal carcinoma, HOP92/non-small cell lung carcinoma, HCC2998/colon carcinoma", "result": "nanomolar or picomolar level"}, {"measurement": "anticancer activity against human tumor cell lines", "setting": "[2]; all cell lines assayed in the NCI screening panel", "result": "effective against all the human tumor cell lines"}, {"measurement": "MIC", "setting": "Candida species; 24 h, Candida albicans ATCC 10231, 24 hrs", "result": 4, "unit": "µg/mL"}, {"measurement": "MIC", "setting": "Candida species; 24 h, Candida glabrata LSPQ 0250, 24 hrs", "result": 4, "unit": "µg/mL"}, {"measurement": "MIC", "setting": "Candida species; 24 h, Candida krusei LSPQ 0309, 24 hrs", "result": 8, "unit": "µg/mL"}, {"measurement": "MIC", "setting": "Candida species; 24 h, Candida lusitaniae ATCC 200953, 24 hrs", "result": 4, "unit": "µg/mL"}, {"measurement": "MIC", "setting": "Candida species; 48 h, Candida albicans ATCC 10231, 48 hrs", "result": 4, "unit": "µg/mL"}, {"measurement": "MIC", "setting": "Candida species; 48 h, Candida glabrata LSPQ 0250, 48 hrs", "result": 8, "unit": "µg/mL"}, {"measurement": "MIC", "setting": "Candida species; 48 h, Candida krusei LSPQ 0309, 48 hrs", "result": 8, "unit": "µg/mL"}, {"measurement": "MIC", "setting": "Candida species; 48 h, Candida lusitaniae ATCC 200953, 48 hrs", "result": 4, "unit": "µg/mL"}, {"measurement": "MIC", "setting": "Aspergillus species; 24 h, Aspergillus flavus ATCC 204304, 24 hrs", "result": 4, "unit": "µg/mL"}, {"measurement": "MIC", "setting": "Aspergillus species; 24 h, Aspergillus fumigatus ATCC 204305, 24 hrs", "result": 16, "unit": "µg/mL"}, {"measurement": "MIC", "setting": "Aspergillus species; 48 h, Aspergillus flavus ATCC 204304, 48 hrs", "result": 8, "unit": "µg/mL"}, {"measurement": "MIC", "setting": "Aspergillus species; 48 h, Aspergillus fumigatus ATCC 204305, 48 hrs", "result": 16, "unit": "µg/mL"}, {"measurement": "ZOI (zone of inhibition of fungal growth at the MEC)", "setting": "A. flavus - ATCC 204304; Aspergillus flavus, at MEC, 24 hours of incubation", "result": 2.7, "unit": "mm"}, {"measurement": "antifungal activity against Aspergillus flavus", "setting": "A. flavus - ATCC 204304; ZOI after 24 hours at 35° C.", "result": "active"}, {"measurement": "increase of median survival time of infected mice", "setting": "C. albicans SC5314", "result": 4, "unit": "fold"}]}
